Assay: Human HepG2 cell viability assay in 384 well format
Assay type: toxicity, cell-based
Parameters: dose 125 nL, time 70.5 hour; cytotoxicity at 70.5 h: concentration not given beside the values
Details: HepG2 cells, read-out: Inhibition

SMILES | cytotoxicity at 70.5 h [%]
c1cc(C2CCN(c3cnccn3)CC2)ncn1 | 1.96
COCCN1Cc2ccnn2CC(COCc2cccnc2)C1 (configuration not stated) | -5.12
CNC(=O)CS(=O)(=O)C1CCN(S(=O)(=O)c2c(F)cccc2F)CC1 | -7.9
CNC(=O)c1cn(C(C)(C)C)c2ncccc12 | -2.43
CCc1ccc(C(=O)N2CCCC(c3nn[nH]n3)C2)cc1 (configuration not stated) | -3.67
CC(C)NC(=O)[C@@H]1C[C@@H](N)CN1C(=O)CCSCc1ccccc1 | 1.3
CC(C)(C)OC(=O)N1CC(=O)N(CCc2ccccc2)CC(O)C1 (configuration not stated) | 30.2
Cc1ccc(O)c(CNC2CCc3nc(C(C)C)nn3C2)n1 (configuration not stated) | -11.7
CN(Cc1ccc(Cl)c(F)c1)C(=O)CCc1ccncc1 | -6.42
CS(=O)(=O)N1CCCC(Cc2ccnc(Nc3ccccn3)c2)C1 (configuration not stated) | -6.97
N#CC1(C(=O)N2CCCN(Cc3cscn3)CC2)CCCCC1 | 0.606
CS(=O)(=O)NC1CCN(C(=O)NCCNc2ccccn2)CC1 | 20.3
Cc1ccc(OC2(C(=O)O)CCN(C/C=C/c3ccco3)CC2)c(C)n1 | -7.06
COc1ccc(-n2cnnc2SCC(=O)N(C)C(C)C)cn1 | -6.69
O=C1C[C@H]2[C@@H](CCN2C(=O)c2cscn2)N1Cc1cccnc1 | -20.8
CC(C)n1c(C2CCCN(CCS(C)(=O)=O)C2)nc2ccccc21 (configuration not stated) | -0.395
Cc1nn(C)c2c(NCc3ccccn3)nc(C(C)C)nc12 | 20.7
Cc1nc(NC(=O)c2c(-n3cnnn3)sc(C)c2C)sc1C | -8.41
COCCO[C@@H]1CCN(C(=O)c2occc2C)[C@H]1Cc1cnn(C)c1 | -90.5
Cc1ncc(-c2ccnc(N3CCC[C@@H]3CO)n2)c(-c2cccnc2)n1 | -3.34
COC(=O)CN(C(=O)c1ccc(-n2ccnc2)cc1)C1CCCC1 | 27.9
Cc1ccc(N2CCCC(c3[nH]ncc3-c3ccccc3)C2)nn1 (configuration not stated) | -8.56
Cc1ccc(C(=O)N2CCSCC2)cc1N1CCNC1=O | -5.73

SMILES | cytotoxicity at 70.5 h [%]
Cc1cc(N2CCCC(N(C)C)C2)n2nc(C)cc2n1 (configuration not stated) | -17
O=C(c1ccccc1F)N1CCCn2c(CN3CCCCC3)nnc2C1 | -6.86
CCN1CCC2(COCc3c(C)nc(N4CCOCC4)nc32)C1 (configuration not stated) | 11.1
Cc1ccc(N2CC[C@H]3OCC[C@@]3(C(=O)NC(C)C)C2)nn1 | 1.98
O=C(c1cnco1)N1CCC(Cc2cnc3ccccc3c2)CC1 | -1.49
CN1CCN(c2nc(-c3cnn(C)c3)cs2)CC1 | -6.42
Cc1nc(C2CCN(C(=O)COC(C)C)CC2)cc(N2CCOCC2)n1 | -8.64
CCn1nc(C)cc1C(=O)NCc1nc(C)no1 | -6.53
O=C(CSc1nnc(N2CCOCC2)s1)NC(=O)Nc1ccccc1 | -4.91
CC(O)C(=O)N1CCC(c2[nH]ncc2-c2ccccc2)CC1 (configuration not stated) | 20.2
CC(C)NC(=O)c1cc(-c2ccc(S(C)(=O)=O)cc2)nc2c1cnn2C | -13.7
Cc1ncncc1-c1ccnc(N(C)C)n1 | -1.27
CC(C)(C)N1CC(C(=O)N2CCN(CCn3cccc3)CC2)CC1=O (configuration not stated) | -2.66
CC(O)CCN(C)C(=O)Nc1ccc(Br)cc1 (configuration not stated) | 26.9
O=C(CN1C(=O)c2ccccc2C1=O)N1CCOC2(CCOCC2)C1 | 3.73
COCC(=O)N1CCC(c2noc3nc(C)cc(C(F)(F)F)c23)CC1 | 24.6
CCN1Cc2nc(OC)c(CNC(=O)CCC3CCCC3)cc2C1=O | -11.1
COc1cc(CNC(c2ccccc2)c2nccn2C)cc(OC)c1 (configuration not stated) | 0.143
Cc1cnn(CCCNC(=O)CCC2CCCCN2C)c1 (configuration not stated) | -13.1
Cc1cc(N(C)C)nc(N2CCCC2c2ccccn2)n1 (configuration not stated) | -3.12
CCC(C)CNc1ccc2oc(COC)nc2c1 (configuration not stated) | 42.8
COc1ccc(-c2nc3c([nH]2)CCNC3)c(OC)c1OC | 1.85
CCN1CCC(CC(=O)NCC(O)c2cccc(OC)c2)CC1 (configuration not stated) | -6.22

SMILES | cytotoxicity at 70.5 h [%]
CCNC(=O)[C@@H]1C[C@@H](NC(=O)c2ccsc2)CN1CCCSC | -3.62
CC(NCc1cnc(N2CCN(C)CC2)nc1)c1ccc(F)cc1 (configuration not stated) | -6.26
COc1cc2[nH]c(=O)c(CN3CCC[C@H]3CO)cc2c(OC)c1OC | 14
Cc1nc2cc(C(=O)N3C[C@@H](NS(C)(=O)=O)[C@H](C(C)C)C3)ccc2[nH]1 | 18.5
O=C(Nc1ccccc1Cn1cncn1)C1CCN(C2CCCCC2)C1 (configuration not stated) | -5.06
CN(C)c1ccc(NC(=O)CN2CCS(=O)(=O)CC2)cn1 | -0.4
NC(=O)c1ccnc(N2CCN(Cc3ccc(F)cc3Cl)CC2)c1 | -15.2
O=C1CO[C@H]2CN(Cc3ccc(C(F)(F)F)cc3)C[C@H]2N1 | -2.56
Cc1cc(NC2CCC(=O)N(C)C2)n2nccc2n1 (configuration not stated) | -9.21
CCc1n[nH]c(=O)c(C(=O)N2CCSCC2)c1CC | -9.39
CCN(CC)[C@@H]1CN(C(=O)c2ccc(C#N)cc2)[C@@H]2CCCO[C@H]12 | -4.73
O=C1COC2(CCN(Cc3ccco3)CC2)CN1CCn1cccn1 | -6.38
Cc1cccc(COCC2c3nnn(C)c3CCN2Cc2ccoc2)n1 (configuration not stated) | -5.52
Cc1ccn2ncc(C(=O)N3CCCC(c4noc(C)n4)C3)c2n1 (configuration not stated) | 14.9
Cn1cnc2c1CCN(Cc1csc(-c3ccccc3F)n1)C2 | -3.29
COc1ccccc1OCc1cc(C(=O)N2C[C@@H](C)O[C@@H](C)C2)n[nH]1 | -11.2
CCN(CC)S(=O)(=O)N(Cc1ccccn1)Cc1ccccc1C | 43.2
CC(=O)NC(C)C(=O)N(Cc1ccc(C)c(C)c1)C1CC1 (configuration not stated) | 0.332
COCC(=O)N1CCN(Cc2cc(F)cc(Br)c2)CC1 | -6.59
Cc1cc(F)cc(S(=O)(=O)NC(=O)CCc2cncc(F)c2)c1 | -4.33
c1ccc(OCCN2CCC(c3cnccn3)CC2)cc1 | 3.59
O=S(=O)(c1cn[nH]c1)N1C[C@@H](O)[C@H](N2CCc3ccccc3C2)C1 | -7.48
CCN(c1ccc(C(=O)N2CCC(C(N)=O)CC2)cc1)S(=O)(=O)CC | 15.4

SMILES | cytotoxicity at 70.5 h [%]
c1cncc(C2COC3(CCN(Cc4nccs4)CC3)C2)c1 (configuration not stated) | -9.69
O=C(Nc1cccnc1N1CCSCC1)c1ccc2c(c1)CCC2 | -3.24
CS(=O)(=O)N1CCOCC12CCN(Cc1ccoc1)CC2 | -5.63
COCCN1CCC(CN(Cc2ccncc2)C2CCC2)CC1 | -6.79
O=C1CC[C@H]2[C@H](CCN2C(=O)C2CCOCC2)N1Cc1ccncc1 | -15.6
Cc1cnn(CC2CCCN2C(=O)c2n[nH]c3ccccc23)c1 (configuration not stated) | -6.9
COc1cc2c(cc1OC)S(=O)(=O)N(Cc1cc(C)on1)C2=O | -4.33
NC(=O)C1(c2cnccn2)CCCN1Cc1ccncc1 (configuration not stated) | -0.768
Cc1ccc(CCN2C(=O)CC[C@H]3CN(Cc4cnn(C)c4)CC[C@H]32)o1 | -0.704
NC(=O)c1nc(CC(=O)Nc2cccc(C(F)(F)F)c2)no1 | 0.00692
COc1ccc(S(=O)(=O)N2CCC(O)(CN(C)C)C2)cc1 (configuration not stated) | -4.76
Cc1ccc(C(=O)NS(=O)(=O)c2ccccc2F)c(=O)[nH]1 | -1.46
Cn1cc(CC2CC(=O)N(Cc3ccc(OC(F)F)cc3)C2=O)cn1 (configuration not stated) | 3.06
CCOc1ccccc1CNC(=O)c1cnn(CC)c1C(F)(F)F | 17.5
COc1ccc(C)cc1CNC(=O)C1=NN(c2ccccc2)C(=O)CN1 | -5.19
CC(NCCCn1cccn1)c1ccc(N2CCCS2(=O)=O)cc1 (configuration not stated) | -4.88
CN1C[C@@H]2CC[C@H](C1)N(Cc1ccccc1OCCN1CCOCC1)C2 | 1.83
Cn1c(N)c2c(=O)n(C)c(-c3ccccc3)cc2c(C#N)c1=O | -10.5
Cc1ccc(CN2CCCn3c(nc(CN4CCCC4)cc3=O)C2)s1 | -8.86
CCS(=O)(=O)N1CCC(NC(=O)c2cc(C(C)C)ccc2O)CC1 | 1.02
O=C(Nc1nc2c(s1)CNCC2)C1CC1 | 26.7
COCC(=O)N1CCN(C(C)c2ncc(-c3ccccc3)o2)CC1 (configuration not stated) | -13.2
Cc1ccc(CN2CCC3(CC2)CCN(Cc2ccoc2)CC3)cc1 | -5.46

SMILES | cytotoxicity at 70.5 h [%]
Fc1cnc(N2CCCC3(CCN(Cc4ccsc4)C3)C2)nc1 (configuration not stated) | 4.29
CC(C)NC(=O)N1CCN(CC2CC2)CC2(CNC(=O)C2)C1 (configuration not stated) | -17.7
CCOC(C)C(=O)N1CCN(S(C)(=O)=O)CC1 (configuration not stated) | -112
COc1cccc(OC2CN(C(=O)CCn3cnnn3)C2)c1 | -10.5
CN(C)C(=O)N1CCN(Cc2ccc3occc3c2)[C@H]2CS(=O)(=O)C[C@H]21 | -3.65
CCc1[nH]c2c(CNc3nccc(N)n3)cc(C)cc2c1C | 23.9
Brc1cc(CNCc2nnc3n2CCC3)cs1 | -8.54
Cc1cccc(CN2CCC3(CCN(c4ncccn4)C3)C2=O)c1 (configuration not stated) | -8.75
CCn1nc(C)c(NC(=O)CN2CCC(c3ccccc3Cl)C2)c1C (configuration not stated) | 21.2
COc1cccc2ccc(CN3CCN(c4ncccc4C)CC3)nc12 | -7.71
c1ccn2cc(CN3CCCC(c4ccn[nH]4)C3)nc2c1 (configuration not stated) | 25.3
CCOc1cc(C(=O)N(C)C)ccc1NC(=O)c1ccsc1 | -9.1
COCCCN(C)S(=O)(=O)c1ccc(Cl)cc1C#N | -14.2
Cc1nc(-c2ccc(Cl)cc2)n(CC(=O)NC(C)C)c(=O)c1CCO | -8.99
Cn1ccc(CN2CCC(CO)CC2)cc1=O | -9.02
Cc1nn(C)c(N(C)C)c1CNCc1ccc(Cn2cccn2)cc1 | -4.86
CC(=O)NC1CCN(c2ccc(C#N)cc2C(F)(F)F)CC1 | -1.95
CCCc1n[nH]cc1C(=O)N1CCCC(c2nccn2CC2CC2)C1 (configuration not stated) | -6.16
Cc1nc2c(c(=O)[nH]1)CN(C(=O)CCC1CCCN(C)C1)C2 (configuration not stated) | -4.89
O=C(NCCCn1nc2ccccn2c1=O)NCC(C1CC1)C1CC1 | -12.3

Reference: ChEMBL document CHEMBL3507680, “University of Dundee, Gates Library screen for HepG2 cell viability”
